This is an account of results in EP0620225B1, “Cephalosporin derivatives” (Basilea Pharmaceutica AG, priority 1993, dated 1994).

Assay in all cases: Antibacterial spectrum (MIC), agar dilution
What all share (assay type): cell-based

In one assay the test system is M.morganii 6H-137. Particulars: Morganella morganii, 6H137, read-out: MIC. On the procedure: (§1) In vitro activity was determined by minimum inhibitory concentration in a microorganism spectum by the agar dilution method in Mueller Hinton agar.
The subject of another assay is S.aureus 6538. The conditions noted are these: Staphylococcus aureus, read-out: MIC. The procedure: as §1
For a further assay, the system named is E.cloacae 908SSi. Particulars: Enterobacter cloacae, read-out: MIC. The procedure: as §1
A further assay concerns L.monocytogenes BK23. The conditions noted are these: Listeria monocytogenes, read-out: MIC. The procedure:
as §1

Another assay deals with P.vulgaris 1028. The conditions noted are these: Proteus vulgaris, read-out: MIC. The procedure:
as §1

Another assay concerns S.viridans group 016. The conditions noted are these: Streptococcus viridans, read-out: MIC. On the procedure:
as §1

A further assay relates to S.aureus 734 MRSA. Particulars: Staphylococcus aureus, read-out: MIC. On the procedure: as §1
Another assay has as its system S.marcescens 69438. The conditions noted are these: Serratia marcescens, read-out: MIC. On the procedure:
as §1

The test system of a further assay is Acinetobacter sp.51-156. The conditions noted are these: SP.51156, read-out: MIC. The procedure: as §1
The subject of the next assay is C.freundii 43. The conditions noted are these: Citrobacter freundii, read-out: MIC. The procedure: as §1
Another assay has as its system C.freundii 902. The conditions noted are these: Citrobacter freundii, read-out: MIC. On the procedure: as §1
A further assay relates to X.maltophilia 1AC739. The conditions noted are these: Stenotrophomonas maltophilia, read-out: MIC. On the procedure: as §1
Another assay has as its system E.cloacae 908R. Particulars: Enterobacter cloacae, read-out: MIC. The procedure:
as §1

The next assay relates to E.faecalis 6. Particulars: Enterococcus faecalis, read-out: MIC. On the procedure: as §1
The next assay concerns M.catarrhalis RA21. The conditions noted are these: Moraxella catarrhalis, read-out: MIC. The procedure: as §1
The next assay deals with E.coli 25922. The conditions noted are these: Escherichia coli, read-out: MIC. The procedure: as §1
A further assay relates to S.pneumoniae Q19. The conditions noted are these: Streptococcus pneumoniae, read-out: MIC. On the procedure:
as §1

The subject of a further assay is K.pneumoniae 418. Particulars: Klebsiella pneumoniae, read-out: MIC. On the procedure:
as §1

Another assay deals with P.mirabilis 2117. Particulars: Proteus mirabilis, read-out: MIC. On the procedure: as §1
In the next assay the test system is H.influenzae 1. Particulars: Haemophilus influenzae, read-out: MIC. The procedure: as §1
The test system of another assay is N.meningitidis 69480. The conditions noted are these: Neisseria meningitidis, read-out: MIC. On the procedure:
as §1

A further assay relates to S.pyogenes B15. Particulars: Streptococcus pyogenes, read-out: MIC. The procedure: as §1
The next assay has as its system P.aeruginosa 27853. The conditions noted are these: Pseudomonas aeruginosa, read-out: MIC. On the procedure:
as §1

A further assay deals with S.agalactiae QK44. Particulars: Streptococcus agalactiae, read-out: MIC. On the procedure:
as §1

SMILES strings stand for the structures. ≈ marks a conversion by molar mass, not a printed value.

For the molecule `C#CCN1CC/C(=C\C2=C(C(=O)O)N3C(=O)[C@@H](NC(=O)/C(=N\O)c4csc(N)n4)[C@H]3SC2)C1=O` [O, [6R-[3(E),6α,7β(Z)]]-7-[[(2-Amino-4-thiazolyl)(hydroxyimino)acetyl]-amino]-8-oxo-3-[[2-oxo-1-(2-propynyl)-3-pyrrolidinylidene]methyl]-5-thia-1-azabicyclo [4.2.0]-oct-2-ene-2-carboxylic acid], the MIC was at most 0.06 µg/mL in the assay with M.morganii 6H-137; 1 µg/mL (≈ 1.99 µM) in the assay on S.aureus 6538; 1 µg/mL (≈ 1.99 µM) in the assay on E.cloacae 908SSi; 2 µg/mL (≈ 3.98 µM) with L.monocytogenes BK23; 8 µg/mL (≈ 15.9 µM) in the assay on P.vulgaris 1028; 0.5 µg/mL (≈ 0.995 µM) with S.viridans group 016. Further, the MIC in the assay with S.aureus 734 MRSA was 4 µg/mL (≈ 7.96 µM); in the assay with S.marcescens 69438 it was 1 µg/mL (≈ 1.99 µM); with Acinetobacter sp.51-156, 16 µg/mL (≈ 31.8 µM); in the assay with C.freundii 43 it was 4 µg/mL (≈ 7.96 µM); in the assay on C.freundii 902 it was 0.12 µg/mL (≈ 0.239 µM); with X.maltophilia 1AC739 it was over 32 µg/mL. Moreover, the MIC in the assay with E.cloacae 908R is 16 µg/mL (≈ 31.8 µM); in the assay with E.faecalis 6, 2 µg/mL (≈ 3.98 µM); in the assay with M.catarrhalis RA21 it was 4 µg/mL (≈ 7.96 µM); with E.coli 25922, at most 0.06 µg/mL; in the assay with S.pneumoniae Q19, at most 0.06 µg/mL; in the assay with K.pneumoniae 418, 0.12 µg/mL (≈ 0.239 µM). Moreover, the MIC in the assay with P.mirabilis 2117 is at most 0.06 µg/mL; in the assay on H.influenzae 1, 0.25 µg/mL (≈ 0.497 µM); in the assay with N.meningitidis 69480 it was 0.25 µg/mL (≈ 0.497 µM); in the assay on S.pyogenes B15 it was at most 0.06 µg/mL; with P.aeruginosa 27853 it was 8 µg/mL (≈ 15.9 µM); with S.agalactiae QK44 it was 0.25 µg/mL (≈ 0.497 µM).

On to `Nc1nc(/C(=N/O)C(=O)N[C@@H]2C(=O)N3C(C(=O)O)=C(/C=C4\CCN(c5cnccn5)C4=O)CS[C@H]23)cs1` [P], for which the MIC with M.morganii 6H-137 was at most 0.06 µg/mL; with S.aureus 6538, 0.5 µg/mL (≈ 0.922 µM); with E.cloacae 908SSi it was 0.25 µg/mL (≈ 0.461 µM); with L.monocytogenes BK23, 4 µg/mL (≈ 7.37 µM); with P.vulgaris 1028 it was 4 µg/mL (≈ 7.37 µM); in the assay with S.viridans group 016, 1 µg/mL (≈ 1.84 µM). In addition, the MIC was 8 µg/mL (≈ 14.7 µM) with S.aureus 734 MRSA; 4 µg/mL (≈ 7.37 µM) in the assay on S.marcescens 69438; 32 µg/mL (≈ 59 µM) with Acinetobacter sp.51-156; 2 µg/mL (≈ 3.69 µM) in the assay on C.freundii 43; 0.12 µg/mL (≈ 0.221 µM) in the assay with C.freundii 902; over 32 µg/mL in the assay on X.maltophilia 1AC739. For the same molecule, the MIC is 8 µg/mL (≈ 14.7 µM) in the assay with E.cloacae 908R; 0.5 µg/mL (≈ 0.922 µM) in the assay on E.faecalis 6; 8 µg/mL (≈ 14.7 µM) in the assay with M.catarrhalis RA21; at most 0.06 µg/mL with E.coli 25922; 0.12 µg/mL (≈ 0.221 µM) in the assay on S.pneumoniae Q19; 0.25 µg/mL (≈ 0.461 µM) with K.pneumoniae 418. The MIC with P.mirabilis 2117 was 0.12 µg/mL (≈ 0.221 µM); with H.influenzae 1, 0.5 µg/mL (≈ 0.922 µM); with N.meningitidis 69480, 0.5 µg/mL (≈ 0.922 µM); in the assay on S.pyogenes B15 it was at most 0.06 µg/mL; in the assay with P.aeruginosa 27853, 8 µg/mL (≈ 14.7 µM); in the assay with S.agalactiae QK44, 0.5 µg/mL (≈ 0.922 µM).
